biological target: T1, full length active recombinant SYK enzyme (Homo sapiens, UniProt P43405); experiment: Inhibition of Syk tyrosine phosphorylation activity (LANCE TR-FRET kinase assay); format: biochemical
T1 construct: full length active recombinant SYK enzyme (Millipore, Calif.); purchased Millipore

| Structure (SMILES) | IC50 [nM] |
| --- | --- |
| CC(C)C[C@@H](Nc1nc(Nc2cccc(-n3nccn3)c2)c(C(N)=O)cc1C#N)C(N)=O [Example 125, (R)-2-(3-(2H-1,2,3-triazol-2-yl)phenylamino)-6-(1-amino-4-methyl-1-oxopentan-2-ylamino)-5-cyanonicotinamide] | 100 to 1000 |
| CC(C)[C@@H](Nc1nc(Nc2cccc(-n3nccn3)c2)c(C(N)=O)cc1C#N)C(N)=O [Example 126, (R)-2-(3-(2H-1,2,3-triazol-2-yl)phenylamino)-6-(1-amino-3-methyl-1-oxobutan-2-ylamino)-5-cyanonicotinamide] | > 1000 |
| CC(C)[C@H](CN)Nc1nc(Nc2ccc3ncccc3c2)c(C(N)=O)cc1C#N [Example 128, (R)-6-(1-amino-3-methylbuttan-2-ylamino)-5-cyano-2-(quinolin-6-ylamino)nicotinamide] | 1 to 10 |
| N#Cc1cc(C(N)=O)c(Nc2cnc3ccccc3c2)nc1N[C@@H]1CCCC[C@@H]1N [Example 129] | 1 to 10 |
| N#Cc1cc(C(N)=O)c(Nc2cccc(-c3ncccn3)c2)nc1N[C@@H]1CCCC[C@@H]1N [Example 130] | 1 to 10 |
| N#Cc1cc(C(N)=O)c(Nc2cccc(-c3ccccn3)c2)nc1N[C@@H]1CCCC[C@@H]1N [Example 131, 6-((1R,2S)-2-aminocyclohexylamino)-5-cyano-2-(3-(pyridin-2-yl)phenylamino)nicotinamide] | 1 to 10 |
| NC(=O)c1ccc(N[C@@H]2CCCC[C@@H]2N)nc1Nc1cccc(-n2nccn2)c1 [Example 132, 2-(3-(2H-1,2,3-triazol-2-yl)phenylamino)-6-((1R,2S)-2-aminocyclohexylamino)nicotinamide] | 1 to 10 |
| NC(=O)c1ccc(N[C@@H]2CCCC[C@@H]2N)nc1Nc1cccc(-c2ncccn2)c1 [Example 133, 2-(3-(pyrimidin-2-yl)phenylamino)-6-((1R,2S)-2-aminocyclohexylamino)nicotinamide] | 10 to 100 |
| NC(=O)c1ccc(N[C@@H]2CCCC[C@@H]2N)nc1Nc1ccc2ncccc2c1 [Example 134, 2-(quinolin-6-ylamino)-6-((1R,2S)-2-aminocyclohexylamino)nicotinamide] | 1 to 10 |
| NC(=O)c1ccc(N[C@@H]2CCCC[C@@H]2N)nc1Nc1ccc2cnccc2c1 [Example 135, 2-(isoquinolin-6-ylamino)-6-((1R,2S)-2-aminocyclohexylamino)nicotinamide] | 1 to 10 |
| Cn1ncc2c(Nc3nc(N[C@@H]4CCCC[C@@H]4N)c(F)cc3C(N)=O)cccc21 [Example 136, 2-(1-methyl-1H-indazol-4-ylamino)-6-((1R,2S)-2-aminocyclohexylamino)-5-fluoronicotinamide] | 1 to 10 |
| NC(=O)c1ccc(N[C@@H]2CCCC[C@@H]2N)nc1Nc1ccc2ccncc2c1 [Example 137, 2-(isoquinolin-7-ylamino)-6-((1R,2S)-2-aminocyclohexylamino)nicotinamide] | 1 to 10 |
| NC(=O)c1ccc(N[C@@H]2CCCC[C@@H]2N)nc1Nc1cccc(-n2cncn2)c1 [Example 138, 2-(3-(1H-1,2,4-triazol-1-yephenylamino)-6-(1R,2S)-2-aminocyclohexylamino)nicotinamide] | 1 to 10 |
| Cn1ncc2cc(Nc3nc(N[C@@H]4CCCC[C@@H]4N)c(F)cc3C(N)=O)ccc21 [Example 139, 2-(1-methyl-1H-indazol-5-ylamino)-6-((1R,2S)-2-aminocyclohexylamino)-5-fluoronicotinamide] | 1 to 10 |
| NC(=O)c1cc(F)c(N[C@H]2CCCNC2)nc1Nc1ccc2ncccc2c1 [Example 143, (S)-5-fluoro-6-(piperidin-3-ylamino)-2-(quinolin-6-ylamino)nicotinamide] | > 1000 |
| Cc1cc(Nc2cc(N[C@@H]3CCCC[C@@H]3N)ccc2C(N)=O)on1 [Example 147, 4-((1R,2S)-2-aminocyclohexylamino)-2-(3-methylisoxazol-5-ylamino)benzamide] | 100 to 1000 |
| NC(=O)c1cc(F)c(N[C@@H]2CCCC[C@@H]2N)nc1Nc1cnc2ncccc2c1 [Example 150, 2-(1,8-naphthyridin-3-ylamino)-6-((1R,2S)-2-aminocyclohexylamino)-5-fluoronicotinamide] | 1 to 10 |
| NC(=O)c1cc(F)c(N[C@@H]2CCCC[C@@H]2N)nc1Nc1ccnc2ncccc12 [Example 151, 2-(1,8-naphthyridin-4-ylamino)-6-((1R,2S)-2-aminocyclohexylamino)-5-fluoronicotinamide] | 1 to 10 |
| NC(=O)c1cc(F)c(N[C@@H]2CCCC[C@@H]2N)nc1Nc1cncnc1 [Example 152, 6-((1R,2S)-2-aminocyclohexylamino)-5-fluoro-2-(pyrimidin-5-ylamino)nicotinamide] | 100 to 1000 |
| Cn1cnc2cc(Nc3nc(N[C@@H]4CCCC[C@@H]4N)c(F)cc3C(N)=O)ccc21 [Example 153, 6-((1R,2S)-2-aminocyclohexylamino)-5-fluoro-2-(1-methyl-1H-benzo[d]imidazol-5-ylamino)nicotinamide] | 1 to 10 |
| NC(=O)c1cc(F)c(N[C@@H]2CCCC[C@@H]2N)nc1Nc1cncc(-n2nccn2)c1 [Example 154, 2-(5-(2H-1,2,3-triazol-2-yl)pyridin-3-ylamino)-6-((1R,2S)-2-aminocyclohexylamino)-5-fluoronicotinamide] | 1 to 10 |
| NC(=O)c1cc(F)c(N[C@@H]2CCCC[C@@H]2N)nc1Nc1cncc(-n2cccn2)c1 [Example 155, 2-(5-(1H-pyrazol-1-yl)pyridin-3-ylamino)-6-((1R,2S)-2-aminocyclohexylamino)-5-fluoronicotinamide] | > 1000 |

| Structure (SMILES) | IC50 [nM] |
| --- | --- |
| NC(=O)c1cc(F)c(N[C@@H]2CCCC[C@@H]2N)nc1Nc1cncc(-c2ncccn2)c1 [Example 156, 6-((1R,2S)-2-aminocyclohexylamino)-5-fluoro-2-(5-(pyrimidin-2-yl)pyridin-3-ylamino)nicotinamide] | 1 to 10 |
| NC(=O)c1ccc(N[C@@H]2CCCC[C@@H]2N)nc1Nc1cncc(-c2ncccn2)c1 [Example 157, 6-((1R,2S)-2-aminocyclohexylamino)-2-(5-(pyrimidin-2-yl)pyridin-3-ylamino)nicotinamide] | 10 to 100 |
| NC(=O)c1ccc(N[C@@H]2CCCC[C@@H]2N)nc1Nc1cncc(-n2nccn2)c1 [Example 158] | 1 to 10 |
| NC(=O)c1ccc(N[C@@H]2CCCC[C@@H]2N)nc1Nc1cncc(-n2cccn2)c1 [Example 159, 2-(5-(1H-pyrazol-1-yl)pyridin-3-ylamino)-6-((1R,2S)-2-aminocyclohexylamino)nicotinamide] | 1 to 10 |
| NC(=O)c1cc(F)c(N[C@@H]2CCCC[C@@H]2N)nc1Nc1cncc(-n2ccnc2)c1 [Example 160] | 10 to 100 |
| NC(=O)c1ccc(N[C@@H]2CCCC[C@@H]2N)nc1Nc1cncc(-n2ccnc2)c1 [Example 161, 2-(5-(1H-imidazol-1-yl)pyridin-3-ylamino)-6-((1R,2S)-2-aminocyclohexylamino)nicotinamide] | 1 to 10 |
| NC(=O)c1cc(F)c(N[C@@H]2CCCC[C@@H]2N)nc1Nc1cncc(-c2nccs2)c1 [Example 162, 6-((1R,2S)-2-aminocyclohexylamino)-5-fluoro-2-(5-(thiazol-2-yl)pyridin-3-ylamino)nicotinamide] | 1 to 10 |
| NC(=O)c1ccc(N[C@@H]2CCCC[C@@H]2N)nc1Nc1cncc(-c2nccs2)c1 [Example 163] | 1 to 10 |
| COc1cncc(Nc2nc(N[C@@H]3CCCC[C@@H]3N)ccc2C(N)=O)c1 [Example 164] | 1 to 10 |
| NC(=O)c1ccc(N[C@@H]2CCCC[C@@H]2N)nc1Nc1cnc2ncccc2c1 [Example 165] | 1 to 10 |
| COc1ncc(Nc2nc(N[C@@H]3CCCC[C@@H]3N)c(F)cc2C(N)=O)cn1 [Example 166, 6-((1R,2S)-2-aminocyclohexylamino)-5-fluoro-2-(2-methoxypyrimidin-5-ylamino)nicotinamide] | 100 to 1000 |
| NC(=O)c1cc(F)c(N[C@@H]2CCCC[C@@H]2N)nc1Nc1cccnc1 [Example 174, 6-((1R,2S)-2-aminocyclohexylamino)-5-fluoro-2-(pyridin-3-ylamino)nicotinamide] | 1 to 10 |
| NC(=O)c1cc(F)c(N[C@@H]2CCCC[C@@H]2N)nc1Nc1ccncc1 [Example 175] | 10 to 100 |
| NC(=O)c1cc(F)c(N[C@@H]2CCCC[C@@H]2N)nc1Nc1ccc(C(F)(F)F)nc1 [Example 176, 6-((1R,2S)-2-aminocyclohexylamino)-5-fluoro-2-(6-(trifluoromethyl)pyridin-3-ylamino)nicotinamide] | 10 to 100 |
| NC(=O)c1cc(F)c(N[C@@H]2CCCC[C@@H]2N)nc1Nc1cncs1 [Example 177, 6-((1R,2S)-2-aminocyclohexylamino)-5-fluoro-2-(thiazol-5-ylamino)nicotinamide] | > 1000 |
| NC(=O)c1cc(F)c(N[C@@H]2CCCC[C@@H]2N)nc1Nc1cnsc1 [Example 178, 6-((1R,2S)-2-aminocyclohexylamino)-5-fluoro-2-(isothiazol-4-ylamino)nicotinamide] | 10 to 100 |
| NC(=O)c1ccc(N[C@@H]2CCCC[C@@H]2N)nc1Nc1cncc(F)c1 [Example 179] | 1 to 10 |
| NC(=O)c1ccc(N[C@@H]2CCCC[C@@H]2N)nc1Nc1cccnc1 [Example 180, 6-((1R,2S)-2-aminocyclohexylamino)-2-(pyridin-3-ylamino)nicotinamide] | 1 to 10 |
| NC(=O)c1ccc(N[C@@H]2CCCC[C@@H]2N)nc1Nc1ccncc1 [Example 181, 6-((1R,2S)-2-aminocyclohexylamino)-2-(pyridin-4-ylamino)nicotinamide] | 1 to 10 |
| Cc1cc(Nc2nc(N[C@@H]3CCCC[C@@H]3N)ccc2C(N)=O)sn1 [Example 182, 6-((1R,2S)-2-aminocyclohexylamino)-2-(3-methylisothiazol-5-ylamino)nicotinamide] | 1 to 10 |
| NC(=O)c1cc(F)c(N[C@@H]2CCCC[C@@H]2N)nc1Nc1cnc2cccnc2c1 [Example 183, 2-(1,5-naphthyridin-3-ylamino)-6-((1R,2S)-2-aminocyclohexylamino)-5-fluoronicotinamide] | 1 to 10 |

Source: patent US8846928B2 (Portola Pharmaceuticals, Inc., priority 2010, dated 2014)
